Data published in US20230286983A1 (4E Therapeutics, Inc., priority 2020, published 2023).
Values joined by “and” are separate entries in the source; they are usually repeats but may differ in a detail not shown here. Equal entries are not always repeated. Where two headings read alike, the source gives them in different places.

Assay: Pharmacokinetic study, 4ET-03-009 at 20 mg/kg oral
Assay type: in vivo, CD-1 male mice
Conditions: for AUCinf/D / Cmax/D: dose normalized; for concentration at 0.083 hours / concentration at 0.25 hours / concentration at 0.5 hours / concentration at 1 hours / concentration at 2 hours / concentration at 4 hours / concentration at 6 hours / concentration at 8 hours / concentration at 24 hours: oral
Experimental: Compound 4ET-03-009 was dissolved in a 10% dimethylacetamide (DMA)/3000 polyethylene glycol (PEG) 300/400% propylene glycol (PG)/200% water solvent. […] Plasma was collected at indicated timepoints and plasma concentration of compound 4ET-03-009 was measured using liquid chromatography-mass spectrometry/mass spectrometry (LC-MS/MS). Results are presented in FIG. 1 and Tables 3, 4, and 5.
Compound 4ET-03-009 was dissolved in a 10% dimethylacetamide (DMA)/30% polyethylene glycol (PEG) 300/40% propylene glycol (PG)/20% water solvent. Dosing and assay were performed as described in Biological Example 2. Results are presented in FIG. 3 and Tables 7, 8, and 9, below.

[1] = male, CD-1, mouse, plasma, po, 20 mg/kg, Mean (n = 3)
[2] = male, CD-1, mouse, plasma, po, 20 mg/kg, individual animals

Plasma Conc. (per mouse n = 3) (0.083 hours): 384 ng/mL and 304 ng/mL | Plasma Conc. (per mouse n = 3) (0.25 hours): 529 ng/mL and 396 ng/mL | Plasma Conc. (per mouse n = 3) (0.5 hours): 607 ng/mL and 497 ng/mL | Plasma Conc. (per mouse n = 3) (1 hours): 561 ng/mL and 448 ng/mL | Plasma Conc. (per mouse n = 3) (2 hours): 372 ng/mL and 286 ng/mL | Plasma Conc. (per mouse n = 3) (4 hours): 144 ng/mL and 135 ng/mL | Plasma Conc. (per mouse n = 3) (6 hours): 71.3 ng/mL and 58.7 ng/mL | Plasma Conc. (per mouse n = 3) (8 hours): 51.4 ng/mL and 41.5 ng/mL | Plasma Conc. (per mouse n = 3) (24 hours): 2.01 ng/mL and 1.89 ng/mL | Tlast (Mean (n = 3)): 24.0 h | t1/2 (Mean (n = 3)): 3.55 h | AUCinf/D (Mean (n = 3)): 113 kg·h/kL | Cmax/D (Mean (n = 3)): 29.5 kg/kL | AUC0-8 hours (individual animals): 1847 ng·h/mL and 1501 ng·h/mL | AUCinf (individual animals): 2284 ng·h/mL and 1858 ng·h/mL | AUClast (individual animals): 2274 ng·h/mL and 1848 ng·h/mL | Clast (individual animals): 2.01 ng/mL and 1.89 ng/mL | Cmax (individual animals): 607 ng/mL and 497 ng/mL | MRTinf (individual animals): 3.53 h | Tlast (individual animals): 24.0 h | t1/2 (individual animals): 3.47 h and 3.61 h | Cmax/D (individual animals): 33.3 kg/kL and 30.4 kg/kL and 24.9 kg/kL | Tmax (male, CD-1, mouse, plasma, individual animals): 0.5 h | concentration at 0.083 hours (male, CD-1, mouse, plasma, 20 mg/kg, 0.083 hours, mean n = 3, read-out: Plasma Conc. Mean): 331 ng/mL | concentration at 0.083 hours (male, CD-1, mouse, plasma, 20 mg/kg, 0.083 hours, read-out: Plasma Conc. (per mouse n = 3)): 304 ng/mL | concentration at 0.25 hours (male, CD-1, mouse, plasma, 20 mg/kg, 0.25 hours, mean n = 3, read-out: Plasma Conc. Mean): 530 ng/mL | concentration at 0.25 hours (male, CD-1, mouse, plasma, 20 mg/kg, 0.25 hours, read-out: Plasma Conc. (per mouse n = 3)): 665 ng/mL | concentration at 0.5 hours (male, CD-1, mouse, plasma, 20 mg/kg, 0.5 hours, mean n = 3, read-out: Plasma Conc. Mean): 590 ng/mL | concentration at 0.5 hours (male, CD-1, mouse, plasma, 20 mg/kg, 0.5 hours, read-out: Plasma Conc. (per mouse n = 3)): 666 ng/mL | concentration at 1 hours (male, CD-1, mouse, plasma, 20 mg/kg, 1 hours, mean n = 3, read-out: Plasma Conc. Mean): 553 ng/mL | concentration at 1 hours (male, CD-1, mouse, plasma, 20 mg/kg, 1 hours, read-out: Plasma Conc. (per mouse n = 3)): 649 ng/mL | concentration at 2 hours (male, CD-1, mouse, plasma, 20 mg/kg, 2 hours, mean n = 3, read-out: Plasma Conc. Mean): 355 ng/mL | concentration at 2 hours (male, CD-1, mouse, plasma, 20 mg/kg, 2 hours, read-out: Plasma Conc. (per mouse n = 3)): 408 ng/mL | concentration at 4 hours (male, CD-1, mouse, plasma, 20 mg/kg, 4 hours, mean n = 3, read-out: Plasma Conc. Mean): 153 ng/mL | concentration at 4 hours (male, CD-1, mouse, plasma, 20 mg/kg, 4 hours, read-out: Plasma Conc. (per mouse n = 3)): 180 ng/mL | concentration at 6 hours (male, CD-1, mouse, plasma, 20 mg/kg, 6 hours, mean n = 3, read-out: Plasma Conc. Mean): 74.5 ng/mL | concentration at 6 hours (male, CD-1, mouse, plasma, 20 mg/kg, 6 hours, read-out: Plasma Conc. (per mouse n = 3)): 93.6 ng/mL | concentration at 8 hours (male, CD-1, mouse, plasma, 20 mg/kg, 8 hours, mean n = 3, read-out: Plasma Conc. Mean): 50.2 ng/mL | concentration at 8 hours (male, CD-1, mouse, plasma, 20 mg/kg, 8 hours, read-out: Plasma Conc. (per mouse n = 3)): 57.6 ng/mL | concentration at 24 hours (male, CD-1, mouse, plasma, 20 mg/kg, 24 hours, mean n = 3, read-out: Plasma Conc. Mean): 2.22 ng/mL | concentration at 24 hours (male, CD-1, mouse, plasma, 20 mg/kg, 24 hours, read-out: Plasma Conc. (per mouse n = 3)): 2.75 ng/mL | concentration at 24 hours (male, CD-1, mouse, plasma, 20 mg/kg, Mean (n = 3), read-out: Clast): 2.22 ng/mL | concentration at 24 hours (male, CD-1, mouse, plasma, 20 mg/kg, individual animals, read-out: Clast): 2.75 ng/mL | AUC(0-inf) [1]: 2260 ng·h/mL | MRT inf [1]: 3.59 h | half-life [1]: 3.6 h | AUC(0-t) (male, CD-1, mouse, plasma, po, 20 mg/kg, Mean (n = 3), read-out: AUC0-8 hours): 1830 ng·h/mL | AUC(0-t) (male, CD-1, mouse, plasma, po, 20 mg/kg, Mean (n = 3), read-out: AUClast): 2240 ng·h/mL | Cmax (male, CD-1, mouse, plasma, po, 20 mg/kg, Mean (n = 3), read-out: Cmax): 590 ng/mL | AUC(0-inf) (male, CD-1, mouse, plasma, po, 20 mg/kg, for the study): 2260 ng·h/mL | Cmax (male, CD-1, mouse, plasma, po, 20 mg/kg, for the study, read-out: Cmax): 1400 nM | AUC(0-inf) [2]: 2630 ng·h/mL | MRT inf [2]: 3.63 h | half-life [2]: 3.58 h | AUC(0-t) (male, CD-1, mouse, plasma, po, 20 mg/kg, individual animals, read-out: AUC0-8 hours): 2130 ng·h/mL | AUC(0-t) (male, CD-1, mouse, plasma, po, 20 mg/kg, individual animals, read-out: AUClast): 2610 ng·h/mL | Cmax (male, CD-1, mouse, plasma, po, 20 mg/kg, individual animals, read-out: Cmax): 666 ng/mL
Structure (SMILES): Cc1cc(Nc2cc(NC(=O)C3CC3)ncn2)c(=O)n2c1C(=O)NC21CCOCC1 [Compound 4ET-03-009, N-(6-((8-Methyl-1,5-dioxo-1,2′,3′,5,5′,6′-hexahydro-2H-spiro[imidazo[1,5-a]pyridine-3,4′-pyran]-6-yl)amino)pyrimidin-4-yl)cyclopropanecarboxamide]
abnormal clinical symptoms during the study: No abnormal clinical symptoms were observed | AUCinf/D (individual animals): 131 kg·h/kL and 114 kg·h/kL and 92.9 kg·h/kL
